One assay has as its target T1, opiate receptor μ (Rattus norvegicus, UniProt P33535).
T1 construct: prepared from brains of rats; from tissue; host or cells: rat brain membranes
Kind of assay: Bond to the opiate receptor μ in vitro (displacement of 3H dihydromorphine, rat brain membranes). Format: binding, rats. Conditions: for IC50: 3H dihydromorphine 0.7 nM, rat brain membranes, Tris buffer pH 7.7, 25° C., 40 minutes, read-out: 50% inhibiting concentration (IC50); for relative bond affinity (RBA): relative to morphine=100. As to the method: (1) Bond to the opiate receptor μ in vitro
Membrane residues preserved at -30° C. for about 30 days and prepared from brains of rats were used in this test and these residues were suspended in Tris buffer pH 7.7. Fractions of 2 ml were distributed into hemolysis tubes and ^3 H dihydromorphine 0.7 nM and the product to be studied were added. The products were first of all tested with 5×10^-6 M in triplicate. When the tested products displaced more than 50% of the radioactivity specifically linked to the receptor, they were tested again according to a range of 7 doses to determine the dose which inhibited by 50% the radioactivity specifically linked to the receptor. The 50% inhibiting concentration was thus determined.
The non-specific bond was determined by addition of 10^-5 M morphine in triplicate. After incubating at 25° C. for 40 minutes, returning to the water-bath at 0° C. for 5 minutes, filtering under vacuum, rinsing with Tris buffer pH 7.7, the radioactivity was counted in the presence of scintillating Trition. The results were expressed: either directly as 50% inhibiting concentration (IC50), that is as a concentration of the product studied, expressed in nM, necessary to displace 50% of the specific radioactivity fixed on the receptor studied, or in relative bond affinity (RBA), taking morphine=100 as a reference [formula]

Assay [1] in a line: Analgesic activity, warm plate test. Format: in vivo. The note with it: Mus musculus, 1 h, female mice, 56° C. plate, 60 minutes after treatment, read-out: AD100 (dose which increased the reaction time by 100%). As to the method: Female mice weighing from 22 to 24 g were placed one by one on a copper plate maintained at 56° C. The reaction to pain was shown by the animals licking their front paws and the time of this reaction was noted and was only retained when the mice reacted in less than 8 seconds. The animals were divided into equal groups and were treated with the products to be studied, one group receiving only the vehicle. The time of reaction to pain was again measured 30 to 60 minutes after the treatment and the active dose or AD100 was the dose which increased the reaction time by 100%, 60 minutes after the treatment, taking account of the variations of the reaction time of the control animals.

For a further assay, the target named is T2, opiate receptor K (Cavia porcellus, UniProt P41144).
T2 construct: Membrane residues prepared from guinea-pig cerebellum; from tissue; host or cells: guinea-pig cerebellum membranes
Kind of assay: Bond to the opiate receptor K in vitro (displacement of 3H Ethylketocyclazocin, guinea-pig cerebellum membranes). Format: binding. Conditions: for IC50: 3H Ethylketocyclazocin 1 nM, guinea-pig cerebellum membranes, Tris buffer pH 7.7, 25° C., 40 minutes, read-out: 50% inhibiting concentration (IC50); for relative bond affinity (RBA): relative to product U 50 488 H as reference. The method, then: (2) Bond to the opiate receptor K in vitro
Membrane residues prepared from guinea-pig cerebellum kept at -30° C. for about 30 days were used and these residues were suspended in Tris buffer pH 7.7. Fractions of 2 ml were distributed into hemolysis tubes, and […] Ethylketocyclazocin 1 nM and the product to be studied were added. The products were first tested to 5×10^-6 M in triplicate. When the products tested displaced more than 50% of the radioactivity specifically linked to the receptor, they were tested again according to a range of 7 doses to determine the dose which inhibited by 50% the radioactivity specifically linked to the receptor. In this way, the 50% inhibiting concentration was determined.
The non-specific bond was determined by the addition of a product known as U 50488 H(ref. Up. John) to 10^-5 M in triplicate. After incubating at 25° C. for 40 minutes, returning to the water-bath at 0° C. for 5 minutes, filtering under reduced pressure, and rinsing in Tris buffer pH 7.7, the radioactivity was counted in the presence of scintillating Trition. The results were expressed: either directly as 50% inhibiting concentration (IC50), that is as a concentration of the product studied, expressed in nM, necessary to displace 50% of the specific radioactivity fixed on the receptor studied, or in relative bond affinity (=RBA) taking the product U 50 488 H as reference [formula]

Where two headings read alike, the source gives them in different places.

T2 sequence (P41144 whole entry): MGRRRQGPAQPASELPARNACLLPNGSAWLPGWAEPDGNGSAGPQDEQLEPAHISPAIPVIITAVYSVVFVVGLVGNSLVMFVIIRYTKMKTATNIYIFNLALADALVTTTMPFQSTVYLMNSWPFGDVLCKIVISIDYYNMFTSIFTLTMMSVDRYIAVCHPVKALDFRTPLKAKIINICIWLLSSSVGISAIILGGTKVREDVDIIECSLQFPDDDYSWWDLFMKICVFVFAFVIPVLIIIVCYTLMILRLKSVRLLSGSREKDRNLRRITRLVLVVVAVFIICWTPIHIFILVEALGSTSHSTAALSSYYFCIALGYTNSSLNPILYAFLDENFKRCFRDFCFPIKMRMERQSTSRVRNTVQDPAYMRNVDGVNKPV
T1 sequence (P33535 whole entry): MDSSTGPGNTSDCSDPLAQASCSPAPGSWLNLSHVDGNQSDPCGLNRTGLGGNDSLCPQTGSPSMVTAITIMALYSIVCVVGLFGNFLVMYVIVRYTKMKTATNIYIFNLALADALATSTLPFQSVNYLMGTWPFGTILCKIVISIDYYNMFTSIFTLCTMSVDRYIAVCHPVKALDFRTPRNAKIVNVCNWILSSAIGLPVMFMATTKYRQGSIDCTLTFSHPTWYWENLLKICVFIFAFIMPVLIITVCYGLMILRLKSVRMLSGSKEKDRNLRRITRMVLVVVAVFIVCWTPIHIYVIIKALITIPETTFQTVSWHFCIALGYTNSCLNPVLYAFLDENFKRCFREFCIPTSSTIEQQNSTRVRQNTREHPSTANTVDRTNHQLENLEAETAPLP

For `C=CCOc1ccccc1OCC(O)CN1CC=C(c2cccc3[nH]ccc23)CC1` (stereo not drawn) [Example 11, 4-(1H-indol-4-yl)-α-[[2-(2-propenyloxy)-phenoxy]-methyl]-1,2,3,6-tetrahydro-1-pyridine ethanol], on opiate receptor μ, the IC50 came to 9.43 nM and the “relative bond affinity (RBA)” value turned out to be 22.43.
For the molecule `COC1(c2cccc3[nH]ccc23)CCNCC1` [Example 14, 4-(4-methoxy-4-piperidinyl)-1H-indole], on opiate receptor μ, the IC50 was found to be 28 nM and the “relative bond affinity (RBA)” value came to 13. Besides, the ED (100% increase in reaction time) in assay [1] (central, intracerebral ventricle route) is 0.5 mg/kg.
Consider `Cl.O=C1Cc2c(cccc2C2=CCN(CCOc3ccccc3)CC2)N1` [Example 29, 1,3-dihydro-4-[1-(2-phenoxyethyl)-1,2,3,6-tetrahydro-4-pyridinyl]-2H-indol-2-one hydrochloride], for which, on opiate receptor μ, the IC50 was 11 nM and the “relative bond affinity (RBA)” value is on record as 23. At opiate receptor K, the IC50 is 152 nM and the “relative bond affinity (RBA)” value is 1.1.
As for `CCCN1CC=C(c2cccc3[nH]ccc23)CC1` [Example 7, 4-(1-propyl-1,2,3,6-tetrahydropyridin-4-yl)-1H-indole], at opiate receptor K, the IC50 came to 182 nM and the “relative bond affinity (RBA)” value is given as 1.4.
As for `Cl.O=C1Cc2c(cccc2C2=CCN(CCCC(=O)c3ccc(F)cc3)CC2)N1` [Example 32, 1,3-dihydro-4-[1-[(4-fluorophenyl)-4-oxobutyl]-1,2,3,6-tetrahydropyridin-4-yl]-2H-indole-2-one hydrochloride], the IC50 at opiate receptor μ is 3.5 nM; on opiate receptor K it was 460 nM. Further, the “relative bond affinity (RBA)” value on opiate receptor μ is 62; on opiate receptor K it was 1.3.
Turning to `C=CCOc1ccccc1OCC(O)CN1CC=C(c2cccc3c2CC(=O)N3)CC1` (centres unmarked) [Example 13, 1,3-dihydro-4-[1-[2-hydroxy-3-[2-(2-propenyloxy)-phenoxy]propyl]-1,2,3,6-tetrahydro-4-pyridinyl]-2H-indol-2-one], on opiate receptor μ, the IC50 was determined as 1.4 nM and the “relative bond affinity (RBA)” value is on record as 270. Further, the ED (100% increase in reaction time) in assay [1] (oral route) was 20 mg/kg.
Turning to `Cl.O=C1Cc2c(cccc2C2=CCN(CCc3ccccc3)CC2)N1` [Example 26, 1,3-dihydro-4-[1-(2-phenylethyl)-1,2,3,6-tetrahydro-4-pyridinyl]-2H-indole-2-one hydrochloride], at opiate receptor μ, the IC50 is 59 nM and the “relative bond affinity (RBA)” value is 8.2.
